# In US20220347093A1, “PHARMACEUTICAL COMPOSITION” (University of Fukui, priority 2019, published 2022):
# How the values were obtained:
# [1] = system: nasal polyps specimen surgically obtained from a patient with eosinophilic sinusitis; test: Ex vivo incubation of nasal polyps specimens, weight change before/after about 24 h; design: species or system human; details: 37° C.; for (A) − (B) (mg), nasal polyps weight decrease / After incubation (mg) (B), nasal polyps specimen weight: single case; for nasal polyps weight change before and after incubation (paired t-test): 6 cases
# Experimental: (§1) A heparinoid (organic sulfate group 25.8 to 37.3% w/w, D-glucuronic acid 19.0 to 24.0% w/w, Maruho Co., Ltd.) dried under reduced pressure was dissolved in saline to prepare heparinoid solutions (0.3, 30 and 3,000 μg/mL). A nasal polyps specimen was surgically obtained from a patient with eosinophilic sinusitis, cut into pieces of about 5 mm squares, wiped off the moisture and measured the weight. Each specimen was transferred to a 12-well plate. The specimen in the plate was incubated with 1 mL of saline or heparinoid solutions at 37° C. for about 24 hours. Then, after wiping off the moisture in the incubated specimen taken from the plate, the weight of the specimen was measured. The difference between specimen weights before and after incubation was used as an index of a nasal polyps reduction effect. The saline group and heparinoid solution groups (different in concentration) of FIG. 1 each consisted of 6 cases.
# The reduction effects of heparinoid solutions (0.003, 0.03, 0.3 and 30 μg/mL) on nasal polyps were evaluated in the same method as in Example 1. The saline group and heparinoid solution groups (different in concentration) of FIG. 2 each consisted of 6 cases.
# A PPS solution (0.003 μg/mL) was prepared and the reduction effect on nasal polyps was evaluated in the same method as in Example 1. PPS used herein was sodium pentosan polysulfate (weight average molecular weight 4,000 to 6,500, sulfur content 13.0 to 20.0% w/w, glucuronic acid content 2.5 to 4.0% w/w) manufactured by Molclone Labs. The saline group and PPS solution group of FIG. 3 each consisted of 6 cases.
# The following 11 types of polysaccharide solutions (polysaccharides except glucomannan: 300 μg/mL; glucomannan 30 μg/mL) were prepared and the reduction effect on nasal polyps was evaluated in the same method as in Example 1. The saline groups and polysaccharide solution groups (different in concentration) of Tables 1 to 4 each consisted of a single case. • Chondroitin (chondroitin sodium, weight average molecular weight 42,351, sulfate group content 2.6%, manufactured by Maruho Co., Ltd.) • Low-molecular chondroitin sulfate (low-molecular sodium chondroitin sulfate, weight average molecular weight 11,500, sulfate group content 8.9%, manufactured by Maruho Co., Ltd.) • Chondroitin sulfate A (sodium chondroitin sulfate A, manufactured by PG Research) • Dermatan sulfate (sodium dermatan sulfate, manufactured by Tokyo Chemical Industry Co., Ltd.) • Chondroitin sulfate C (sodium chondroitin sulfate C, manufactured by PG Research) • Glucomannan (Propol A, manufactured by Shimizu Chemical Corporation) • Dextran sulfate (sodium dextran sulfate 500,000, manufactured by FUJIFILM Wako Pure Chemical Corporation) • Keratan sulfate (sodium keratan sulfate, manufactured by PG Research) • Inulin (manufactured by Tokyo Chemical Industry Co., Ltd.) • Heparan sulfate (manufactured by Toronto Research Chemicals, Inc.) • Xylo-oligosaccharide (xylo-hexaose, manufactured by Megazyme)
# [2] = system: rat nasal mucosal inflammation models; details: Non Patent Literature 4; cited from earlier work
# [3] = system: nasal polyps surgically obtained from patients with eosinophilic sinusitis; details: Non Patent Literature 5; cited from earlier work
# [4] = system: nasal polyps specimen surgically obtained from a patient with non-eosinophilic sinusitis; test: Ex vivo incubation of nasal polyps specimens, weight change before/after about 24 h; design: species or system human; details: single case; for (A) − (B) (mg), nasal polyps weight decrease / After incubation (mg) (B), nasal polyps specimen weight: 37° C., about 24 hours; for nasal polyps weight change before and after incubation, in words: 0.03, 0.3, 30 and 300 μg/mL, individually
# Experimental: as §1
# In the same method as in Example 1, heparinoid solutions and PPS solutions (0.03, 0.3, 30 and 300 μg/mL, respectively) were prepared and the reduction effect on nasal polyps specimen surgically obtained from a patient with non-eosinophilic sinusitis was evaluated. The heparinoid and PPS were also the same as those used in Example 1 and Example 3, respectively. The saline groups, heparinoid solution group and PPS solution groups of Table 5 each consisted of a single case.
compound,measurement,setting,value
"OC1OC[C@@H](O[C@@H]2OC[C@@H](O[C@@H]3OC[C@@H](O[C@@H]4OC[C@@H](O[C@@H]5OC[C@@H](O[C@@H]6OC[C@@H](O)[C@H](O)[C@H]6O)[C@H](O)[C@H]5O)[C@H](O)[C@H]4O)[C@H](O)[C@H]3O)[C@H](O)[C@H]2O)[C@H](O)[C@H]1O (stereo partly shown) [Xylo-oligosaccharide, xylo-hexaose]","(A) − (B) (mg), nasal polyps weight decrease",[1]; 300 μg/mL in saline,17.9 mg
same,"After incubation (mg) (B), nasal polyps specimen weight",[1]; 300 μg/mL in saline,110.4 mg
Glucomannan,"(A) − (B) (mg), nasal polyps weight decrease",[1]; 30 μg/mL in saline,19.0 mg
same,"After incubation (mg) (B), nasal polyps specimen weight",[1]; 30 μg/mL in saline,81.0 mg
Heparan sulfate,"(A) − (B) (mg), nasal polyps weight decrease",[1]; 300 μg/mL in saline,25.5 mg
same,"After incubation (mg) (B), nasal polyps specimen weight",[1]; 300 μg/mL in saline,103.0 mg
Inulin,"(A) − (B) (mg), nasal polyps weight decrease",[1]; 300 μg/mL in saline,46.1 mg
same,"After incubation (mg) (B), nasal polyps specimen weight",[1]; 300 μg/mL in saline,85.3 mg
chondroitin sodium,"(A) − (B) (mg), nasal polyps weight decrease",[1]; 300 μg/mL in saline,32.8 mg
same,"After incubation (mg) (B), nasal polyps specimen weight",[1]; 300 μg/mL in saline,122.0 mg
heparin,neutrophil infiltration,[2],significantly suppress
same,production of mucus,[2],significantly suppress
same,reduction effect on nasal polyps,[3],did not show a reduction effect
heparinoid,"(A) − (B) (mg), nasal polyps weight decrease",[4]; 0.03 μg/mL,35.0 mg
same,"After incubation (mg) (B), nasal polyps specimen weight",[4]; 0.03 μg/mL,276.0 mg
same,"(A) − (B) (mg), nasal polyps weight decrease",[4]; 0.3 μg/mL,28.0 mg
same,"After incubation (mg) (B), nasal polyps specimen weight",[4]; 0.3 μg/mL,181.0 mg
same,"(A) − (B) (mg), nasal polyps weight decrease",[4]; 30 μg/mL,66.0 mg
same,"After incubation (mg) (B), nasal polyps specimen weight",[4]; 30 μg/mL,169.0 mg
same,"(A) − (B) (mg), nasal polyps weight decrease",[4]; 300 μg/mL,30.0 mg
same,"After incubation (mg) (B), nasal polyps specimen weight",[4]; 300 μg/mL,246.0 mg
same,"nasal polyps weight change before and after incubation, in words",[4],remarkably decreased
same,nasal polyps weight change before and after incubation (paired t-test),[1]; 0.003 μg/mL,decreased significantly
same,nasal polyps weight change before and after incubation (paired t-test),[1]; 0.03 μg/mL,decreased significantly
same,nasal polyps weight change before and after incubation (paired t-test),[1]; 0.3 μg/mL,decreased significantly
same,nasal polyps weight change before and after incubation (paired t-test),[1]; 30 μg/mL,decreased significantly
same,nasal polyps weight change before and after incubation (paired t-test),"[1]; 3,000 μg/mL",decreased significantly
low-molecular sodium chondroitin sulfate [Low-molecular chondroitin sulfate],"(A) − (B) (mg), nasal polyps weight decrease",[1]; 300 μg/mL in saline,25.0 mg
same,"After incubation (mg) (B), nasal polyps specimen weight",[1]; 300 μg/mL in saline,116.0 mg
sodium chondroitin sulfate A,"(A) − (B) (mg), nasal polyps weight decrease",[1]; 300 μg/mL in saline,38.0 mg
same,"After incubation (mg) (B), nasal polyps specimen weight",[1]; 300 μg/mL in saline,68.0 mg
sodium chondroitin sulfate C,"(A) − (B) (mg), nasal polyps weight decrease",[1]; 300 μg/mL in saline,44.0 mg
same,"After incubation (mg) (B), nasal polyps specimen weight",[1]; 300 μg/mL in saline,80.0 mg
sodium dermatan sulfate,"(A) − (B) (mg), nasal polyps weight decrease",[1]; 300 μg/mL in saline,13.1 mg
same,"After incubation (mg) (B), nasal polyps specimen weight",[1]; 300 μg/mL in saline,118.5 mg
"sodium dextran sulfate 500,000","(A) − (B) (mg), nasal polyps weight decrease",[1]; 300 μg/mL in saline,22.0 mg
same,"After incubation (mg) (B), nasal polyps specimen weight",[1]; 300 μg/mL in saline,120.0 mg
sodium keratan sulfate,"(A) − (B) (mg), nasal polyps weight decrease",[1]; 300 μg/mL in saline,18.3 mg
same,"After incubation (mg) (B), nasal polyps specimen weight",[1]; 300 μg/mL in saline,147.3 mg
sodium pentosan polysulfate [PPS],"(A) − (B) (mg), nasal polyps weight decrease",[4]; 0.03 μg/mL,19.0 mg
same,"After incubation (mg) (B), nasal polyps specimen weight",[4]; 0.03 μg/mL,214.0 mg
same,"(A) − (B) (mg), nasal polyps weight decrease",[4]; 0.3 μg/mL,48.0 mg
same,"After incubation (mg) (B), nasal polyps specimen weight",[4]; 0.3 μg/mL,225.0 mg
same,"(A) − (B) (mg), nasal polyps weight decrease",[4]; 30 μg/mL,13.0 mg
same,"After incubation (mg) (B), nasal polyps specimen weight",[4]; 30 μg/mL,207.0 mg
same,"(A) − (B) (mg), nasal polyps weight decrease",[4]; 300 μg/mL,10.0 mg
same,"After incubation (mg) (B), nasal polyps specimen weight",[4]; 300 μg/mL,115.0 mg
same,"nasal polyps weight change before and after incubation, in words",[4],remarkably decreased
same,nasal polyps weight change before and after incubation (paired t-test),[1]; 0.003 μg/mL,decreased significantly
